Tests used:
HepG2 cells [1] = assay: Cell morphology under white field microscopy; assay type: cell-based; settings: 10 μM, time dependent (FIG. 6C)
Procedure: HepG2 cells were treated with 3-(decylamino)-5-phenylcyclohex-2-en-1-one at 10 μM for various times. At each time point, cells were analyzed by BrdU uptake and 7-AAD staining, G0, G1, S, G2/M phase cells were then quantitated and graphed. […] Cells were then observed under white field microscopy.

HepG2 cells [2] = assay: HepG2 cell proliferation (CellTiter-Glo Luminescent Cell Viability Assay); assay type: cell-based; settings: 96 h
Procedure: Cell proliferation were then measured by CellTiter-Glo® Luminescent Cell Viability Assay (n=3).
4KHepG2 cells were seeded in 96 well plates for overnight. Compounds listed in Table 3 were then added to each well at various concentrations. 96 h later, cell proliferation was measured by ATP production using a CellTiter-Glo® Luminescent Cell Viability Assay (Promega).
3-(pentylamino)-5-phenylcyclohex-2-en-1-one was modified by adding a different sidechain. These novel compounds were tested further in an in vitro proliferation assay using ATPLite Cell Proliferation kit. […] Others lost activity in reducing Cullin Neddylation and inhibiting cell proliferation (FIG. 3C-D).

[3] = tested on: Clvd-caspase3 and Clvd-PARP; assay: Apoptosis markers, protein immunoblotting in HepG2 cells; assay type: cell-based
human lung tissue = assay: LPS-treated human lung slices, cytokines and immunoblotting; assay type: cell-based
Procedure: Cells were then treated with LPS (10 ng/ml) for additional 2 h. Media were then collected and TNF concentration was determined by ELISA. […] Lung tissue was collected and assayed for immunoblotting. Culture media was collected and assayed for cytokines.
3-(decylamino)-5-phenylcyclohex-2-en-1-one was next tested in human lung tissue. Human lung slices were pretreated with 3-(decylamino)-5-phenylcyclohex-2-en-1-one for 18 h before LPS treatment (100 ng/ml) for additional 4 h. […] 3-(decylamino)-5-phenylcyclohex-2-en-1-one reduced nedd8-cullins level and rescued IκBα in a dose dependent manner.

HepG2 tumor tissue = assay: PD/PK study, tumor tissue immunoblotting after single oral dose; assay type: in vivo, nude mice
Procedure: Nude mice were implanted with HepG2 cells (10^6 cells) through subcutaneous injection. Five weeks later, once tumor size reaches 0.3 cm^3, mice were randomized and given 1 dose of 3-(decylamino)-5-phenylcyclohex-2-en-1-one (15 mg/kg) by oral gavage. Mice were then euthanized, plasma and tumor tissue were isolated for analysis. Tumor tissue were grinded and assayed for protein immunoblotting (n=3-4).
A PD/PK study was also performed. Mice were implanted with HepG2 cells (10^6 cells) through subcutaneous injection. 5 weeks later, once tumor size reached 0.3 cm^3, mice were randomized and given 1 dose of 3-(decylamino)-5-phenylcyclohex-2-en-1-one (15 mg/kg) by oral gavage (FIG. 9A). […] NRF2 protein levels peaked 4 h after administration of BC1558 and started to decline by 8-24 h post-dose. The timing of CDT1 accumulation was compared to NRF2, peaking 4 h after 3-(decylamino)-5-phenylcyclohex-2-en-1-one administration.

HepG2 cells [4] = assay: Mitotic spindle immunostaining (α-tubulin, DAPI); assay type: cell-based; settings: 1 uM, 24 h (FIG. 7B)
Procedure: Cells were then washed with PBS and fixed with 4% paraformaldehyde for 20 min. Cells were co-immunostained for either α-tubulin. Cells were counterstained with DAPI to visualize the nucleus.
The integrity of the centrosome and mitotic spindles after 3-(decylamino)-5-phenylcyclohex-2-en-1-one treatment was examined. HepG2 cells were stained with antibody to α-tubulin to visualize the mitotic spindle (FIG. 7A-B). […] The circular prophase configurations were observed (FIG. 7B, top panel). One classic phenotype of the circular chromosome configuration is circular figures arranged on monopolar spindles around large centrosomes. No spindles assembly in metaphase was observed (FIG. 7B, lower panel).

Nedd8-cullin = assay: Cullin neddylation, protein immunoblotting in HepG2 cells; assay type: cell-based
Text: Cells were then collected and assayed for protein immunoblotting. […]
DCN1 protein is believed to harbor a UBC12 binding pocket. Scott et al, Cell 757:1671-84 (2014). […] Scott et al. (2014). The N-terminal acetylation acts as an avidity enhancer within an interconnected multiprotein complex. Science, 554:674-8 (2011). Specifically, n-terminal of UBC12 is acetylated (FIG. 1A, yellow) and completely buried inside the hydrophobic pocket within DCN1 (4gao.PDB, FIG. 1B). Small molecule inhibition of the DCN1 hydrophobic pocket would presumably disrupt UBC12 binding, and thus disrupt Neddylation of Cullin protein. Potential ligands were assessed that might fit the DCN1 domain cavities (FIG. 1B). 3-(pentylamino)-5-phenylcyclohex-2-en-1-one was selected for future testing (FIG. 1C). […] MLN4924 was used as a positive control.

HepG2 cells [5] = assay: Wound-healing assay; assay type: cell-based; settings: 36 h (FIG. 5C)
Procedure: HepG2 cells were treated with 3-(decylamino)-5-phenylcyclohex-2-en-1-one for 36 h with various concentrations. Cells were then analyzed by BrdU uptake and 7-AAD staining, G0, G1, S, G2/M phase cells were then quantitated and graphed. […] Confluent monolayers of HepG2 cells were injured and cellular migration into the wound was determined under vehicle or 3-(decylamino)-5-phenylcyclohex-2-en-1-one treated condition. 36 h later cells were then observed under white field microscopy and recovery of cells to wound heal was quantified and graphed (right).

[6] = tested on: DSS induced colonic inflammation; assay: DSS induced colitis model; assay type: in vivo, C57BL6 mice; settings: DSS in water
Procedure: FIGS. 12A-12D show DCN1 inhibitors reduce DSS induced colonic inflammation, specifically the following experimental results C57BL6 mice were fed with water ad lib containing 3% dextran sulfate sodium (DSS) for six days. DCN1 inhibitors were administered into drinking water at 10 mg/kg/d, starting at day 1. […] The data represent n=4 mice/group, *P<0.05 versus CON.
Also tested were 3-(decylamino)-5-phenylcyclohex-2-en-1-one (BC1558), 3-(dibenzylamino)-5-phenylcyclohex-2-en-1-one (BC1634) and 3-((4-phenoxybenzyl)amino)-5-phenylcyclohex-2-en-1-one (BC1653) in a mouse colitis model to confirm its anti-inflammatory activity. Briefly, C57BL6 mice were fed with water containing 3.5% […] and colonic length was measured. DSS produced a significant decrease in colon length in mice, consistent with colonic inflammation (FIG. 12A-B). […] Colonic tissue cytokine levels were further analyzed.

[7] = human lung slices, dose dependent
[8] = single dose 15 mg/kg oral gavage, tumor tissue

For `CCCCCCCCCCNC1=CC(=O)CC(c2ccccc2)C1` (centres unmarked) [BC1558, 3-(decylamino)-5-phenylcyclohex-2-en-1-one], the cell morphology (HepG2 cells [1]) was “accumulation of rounded, apoptotic hepG2 cells”, the inhibiting cell proliferation (HepG2 cells [2]; various concentrations (FIG. 3D)) was “exhibited activity” and the IC50 (HepG2 cells [2]; Homo sapiens, ATP production, n=3, read-out: IC50Proliferation) was under 1 µM. The “apoptosis markers Clvd-caspase3 and Clvd-PARP” value ([3]; 10 μM, various times (FIG. 6A)) was “effectively increased”, the “apoptosis markers Clvd-caspase3 and Clvd-PARP” value ([3]; 48 h, various concentrations (FIG. 5A)) was “effectively increased” and the IκBα (human lung tissue; [7]) was “rescued”. The nedd8-cullins level (human lung tissue; [7]) was “reduced”, the “LPS induced IL1, IL6 and TNF release from lung tissue” value (human lung tissue; pretreated 18 h, LPS 100 ng/ml for 4 h) was “potently inhibited” and the “phosphorylated CHK1 (Ser 317), DNA damage in the tumor” value (HepG2 tumor tissue; at 8 h after a single administration, 15 mg/kg oral gavage) was “increased levels”. For the same molecule, the “steady state levels of NRF2 and CDT1” value (HepG2 tumor tissue; [8]) was “time-dependent increase”, the “time at which NRF2 protein levels started to decline post-dose” value (HepG2 tumor tissue; [8]) was 8 to 24 h and the “time of maximal effect on NEDD8-cullin levels post-dose” value (HepG2 tumor tissue; [8]) was 2 to 4 h. The “time of peak CDT1 accumulation after administration” value (HepG2 tumor tissue; [8]) was 4 h, the “time of peak NRF2 protein levels after administration” value (HepG2 tumor tissue; [8]) was 4 h and the “time to decrease of NEDD8-cullin levels after administration” value (HepG2 tumor tissue; single dose 15 mg/kg oral gavage, tumor tissue (FIG. 9B)) was at most 1 h. The “integrity of the centrosome and mitotic spindles” value (HepG2 cells [4]) was “Abnormal cells with several representative mitotic abnormalities were also detected”, the “neddylation of several cullin isoforms” value (Nedd8-cullin; 10 μM, time dependent (FIG. 6A)) was “drastically reduced” and the “neddylation of several cullin isoforms” value (Nedd8-cullin; 48 h, dose dependent (FIG. 5A)) was “drastically reduced”. For the same molecule, the “activity compared with MLN4924” value (Nedd8-cullin; 48 h, various concentration (FIG. 4)) was “comparable activity”, the “reducing Cullin Neddylation” value (Nedd8-cullin; 48 h, various concentrations (FIG. 3C)) was “exhibited activity” and the hepG2 cells migration (HepG2 cells [5]) was “showed inhibition”. The “colon length compared vehicle” value ([6]; compounds in drinking water at 10 mg/kg/d (FIG. 12A-B)) was “significant increase” and the “IL1β and IL6 levels in colonic tissue compared to vehicle” value ([6]; compounds in drinking water at 10 mg/kg/d (FIG. 12C-D)) was “large reduction”.

Reference: US20200405715A1, “COMPOSITIONS AND METHODS FOR TREATING CANCER AND INFLAMMATORY DISEASES” (University of Pittsburgh - Of the Commonwealth System of …, priority 2016, published 2020)
